Results: patent publication US10011607B2, “Ethynyl derivatives” (Hoffmann-La Roche Inc., priority 2015, dated 2018)

Biological target: human mGlu4 receptor (Homo sapiens (Human), UniProt Q14833)
Test: Ca2+ mobilization in vitro assay on recombinant human mGlu4 expressed in HEK293 cells (PAM)
Assay type: cell-based
Details: for Emax: HEK293, maximal response in % of maximal stimulatory effect of saturating L-AP4, read-out: Eff. (%); for EC50: HEK293 cells, human mGlu4, in presence of EC20 of L-AP4, read-out: EC50 (nM) mGlu4PAM
Procedure, shortened: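 HEK293 cells stably expressing human mGlu4 at low level, Fluo-4AM loaded; compound (11 half-log dilutions) pre-incubated 10–30 min at 37 °C, then L-AP4 added at EC20 (determined daily). Peak fluorescence minus basal, normalized to saturating L-AP4; EC50, Hill slope and % Emax from four-parameter fit.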

human mGlu4 receptor, sequence (Q14833 33-912): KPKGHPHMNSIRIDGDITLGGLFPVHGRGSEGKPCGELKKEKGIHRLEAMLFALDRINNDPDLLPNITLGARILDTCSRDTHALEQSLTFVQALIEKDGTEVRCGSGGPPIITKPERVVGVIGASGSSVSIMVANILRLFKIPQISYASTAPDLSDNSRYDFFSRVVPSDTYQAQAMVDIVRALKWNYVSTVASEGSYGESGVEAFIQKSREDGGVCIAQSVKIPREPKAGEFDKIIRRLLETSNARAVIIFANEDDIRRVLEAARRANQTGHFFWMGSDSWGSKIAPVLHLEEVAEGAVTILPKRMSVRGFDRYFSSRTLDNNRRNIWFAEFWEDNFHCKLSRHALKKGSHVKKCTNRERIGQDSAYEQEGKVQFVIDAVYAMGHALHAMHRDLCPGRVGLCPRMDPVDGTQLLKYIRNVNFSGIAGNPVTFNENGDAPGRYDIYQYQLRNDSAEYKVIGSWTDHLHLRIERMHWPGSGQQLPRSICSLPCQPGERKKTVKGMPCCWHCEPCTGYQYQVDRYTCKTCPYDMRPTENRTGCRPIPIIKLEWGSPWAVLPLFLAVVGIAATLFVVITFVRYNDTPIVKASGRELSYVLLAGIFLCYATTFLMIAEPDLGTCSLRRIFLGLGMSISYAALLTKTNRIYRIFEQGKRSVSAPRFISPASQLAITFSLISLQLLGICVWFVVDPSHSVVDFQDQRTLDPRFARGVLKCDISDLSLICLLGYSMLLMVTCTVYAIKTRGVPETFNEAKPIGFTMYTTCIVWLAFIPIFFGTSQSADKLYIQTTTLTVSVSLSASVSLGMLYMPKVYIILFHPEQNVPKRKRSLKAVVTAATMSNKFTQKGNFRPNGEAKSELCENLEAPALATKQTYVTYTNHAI

Row | SMILES | Emax [%] | EC50 [nM]
1 | Cn1cc(N2CCN3C(=O)N(c4c(F)cc(C#Cc5ccccc5)cc4F)C(=O)C[C@@]3(C)C2=O)cn1 [Example 68, (9aS)-7-[2,6-difluoro-4-(2-phenylethynyl)phenyl]-9a-methyl-2-(1-methylpyrazol-4-yl)-4,9-dihydro-3H-pyrazino[1,2-c]pyrimidine-1,6,8-trione] | 135 | 90
2 | CCn1cc(N2CCN3C(=O)N(c4c(F)cc(C#Cc5ccccc5)cc4F)C(=O)C[C@@]3(C)C2=O)cn1 [Example 69, (9aS)-7-[2,6-difluoro-4-(2-phenylethynyl)phenyl]-2-(1-ethylpyrazol-4-yl)-9a-methyl-4,9-dihydro-3H-pyrazino[1,2-c]pyrimidine-1,6,8-trione] | 184 | 151
3 | CC(C)n1cc(N2CCN3C(=O)N(c4c(F)cc(C#Cc5ccccc5)cc4F)C(=O)C[C@@]3(C)C2=O)cn1 [Example 70, (9aS)-7-[2,6-difluoro-4-(2-phenylethynyl)phenyl]-2-(1-isopropylpyrazol-4-yl)-9a-methyl-4,9-dihydro-3H-pyrazino[1,2-c]pyrimidine-1,6,8-trione] | 150 | 139
4 | C[C@@]12CC(=O)N(c3c(F)cc(C#Cc4ccccc4)cc3F)C(=O)N1CCN(c1cn[nH]c1)C2=O [Example 71, (9aS)-7-[2,6-difluoro-4-(2-phenylethynyl)phenyl]-9a-methyl-2-(1H-pyrazol-4-yl)-4,9-dihydro-3H-pyrazino[1,2-c]pyrimidine-1,6,8-trione] | 182 | 101
5 | COCCCn1cc(N2CCN3C(=O)N(c4c(F)cc(C#Cc5ccccc5)cc4F)C(=O)C[C@@]3(C)C2=O)cn1 [Example 72, (9aS)-7-[2,6-difluoro-4-(2-phenylethynyl)phenyl]-2-[1-(3-methoxypropyl)pyrazol-4-yl]-9a-methyl-4,9-dihydro-3H-pyrazino[1,2-c]pyrimidine-1,6,8-trione] | 149 | 122
6 | Cn1cnc(N2CCN3C(=O)N(c4c(F)cc(C#Cc5ccccc5)cc4F)C(=O)C[C@@]3(C)C2=O)n1 [Example 73, (9aS)-7-[2,6-difluoro-4-(2-phenylethynyl)phenyl]-9a-methyl-2-(1-methyl-1,2,4-triazol-3-yl)-4,9-dihydro-3H-pyrazino[1,2-c]pyrimidine-1,6,8-trione] | 138 | 244
7 | Cn1cc(N2CCN3C(=O)N(c4c(F)cc(C#Cc5ccccc5)cc4Cl)C(=O)C[C@@]3(C)C2=O)cn1 [Example 78, (9aS)-7-[2-chloro-6-fluoro-4-(2-phenylethynyl)phenyl]-9a-methyl-2-(1-methylpyrazol-4-yl)-4,9-dihydro-3H-pyrazino[1,2-c]pyrimidine-1,6,8-trione] | 117 | 75
8 | COCCN1CCN2C(=O)N(c3c(F)cc(C#Cc4ccccc4)cc3F)C(=O)C[C@@]2(C)C1=O [Example 79, (9aS)-7-[2,6-difluoro-4-(2-phenylethynyl)phenyl]-2-(2-methoxyethyl)-9a-methyl-4,9-dihydro-3H-pyrazino[1,2-c]pyrimidine-1,6,8-trione] | 122 | 137
9 | COCCCN1CCN2C(=O)N(c3c(F)cc(C#Cc4ccccc4)cc3F)C(=O)C[C@@]2(C)C1=O [Example 80, (9aS)-7-[2,6-difluoro-4-(2-phenylethynyl)phenyl]-2-(3-methoxypropyl)-9a-methyl-4,9-dihydro-3H-pyrazino[1,2-c]pyrimidine-1,6,8-trione] | 132 | 135
10 | C[C@@]12CC(=O)N(c3c(F)cc(C#Cc4ccccc4)cc3F)C(=O)N1CCN(CC(F)(F)F)C2=O [Example 81, (9aS)-7-[2,6-difluoro-4-(2-phenylethynyl)phenyl]-9a-methyl-2-(2,2,2-trifluoroethyl)-4,9-dihydro-3H-pyrazino[1,2-c]pyrimidine-1,6,8-trione] | 172 | 112
11 | CCOC(=O)CCCN1CCN2C(=O)N(c3c(F)cc(C#Cc4ccccc4)cc3F)C(=O)C[C@@]2(C)C1=O [Example 82, Ethyl 4-[(9aS)-7-[2,6-difluoro-4-(2-phenylethynyl)phenyl]-9a-methyl-1,6,8-trioxo-4,9-dihydro-3H-pyrazino[1,2-c]pyrimidin-2-yl]butanoate] | 134 | 201
12 | C[C@@]12CC(=O)N(c3c(F)cc(C#Cc4ccccc4)cc3F)C(=O)N1CCN(Cc1ccccc1F)C2=O [Example 89, (9aS)-7-[2,6-difluoro-4-(2-phenylethynyl)phenyl]-2-[(2-fluorophenyl)methyl]-9a-methyl-4,9-dihydro-3H-pyrazino[1,2-c]pyrimidine-1,6,8-trione] | 98 | 149
13 | C[C@@]12CC(=O)N(c3c(F)cc(C#Cc4ccccc4)cc3F)C(=O)N1CCN(Cc1cccc(F)c1)C2=O [Example 90, (9aS)-7-[2,6-difluoro-4-(2-phenylethynyl)phenyl]-2-[(3-fluorophenyl)methyl]-9a-methyl-4,9-dihydro-3H-pyrazino[1,2-c]pyrimidine-1,6,8-trione] | 109 | 187
14 | C[C@@]12CC(=O)N(c3c(F)cc(C#Cc4ccccc4)cc3F)C(=O)N1CCN(Cc1ccc(F)cc1)C2=O [Example 91, (9aS)-7-[2,6-difluoro-4-(2-phenylethynyl)phenyl]-2-[(4-fluorophenyl)methyl]-9a-methyl-4,9-dihydro-3H-pyrazino[1,2-c]pyrimidine-1,6,8-trione] | 101 | 147
15 | Cn1nccc1CN1CCN2C(=O)N(c3c(F)cc(C#Cc4ccccc4)cc3F)C(=O)C[C@@]2(C)C1=O [Example 97, (9aS)-7-[2,6-difluoro-4-(2-phenylethynyl)phenyl]-9a-methyl-2-[(2-methylpyrazol-3-yl)methyl]-4,9-dihydro-3H-pyrazino[1,2-c]pyrimidine-1,6,8-trione] | 128 | 76
16 | C[C@@]12CC(=O)N(c3c(F)cc(C#Cc4ccccc4)cc3F)C(=O)N1CCN(CCn1ccnc1)C2=O [Example 98, (9aS)-7-[2,6-difluoro-4-(2-phenylethynyl)phenyl]-2-(2-imidazol-1-ylethyl)-9a-methyl-4,9-dihydro-3H-pyrazino[1,2-c]pyrimidine-1,6,8-trione] | 135 | 283
17 | Cc1nccn1CCN1CCN2C(=O)N(c3c(F)cc(C#Cc4ccccc4)cc3F)C(=O)C[C@@]2(C)C1=O [Example 99, (9aS)-7-[2,6-difluoro-4-(2-phenylethynyl)phenyl]-9a-methyl-2-[2-(2-methylimidazol-1-yl)ethyl]-4,9-dihydro-3H-pyrazino[1,2-c]pyrimidine-1,6,8-trione] | 146 | 282
18 | Cn1nccc1CCN1CCN2C(=O)N(c3c(F)cc(C#Cc4ccccc4)cc3F)C(=O)C[C@@]2(C)C1=O [Example 100, (9aS)-7-[2,6-difluoro-4-(2-phenylethynyl)phenyl]-9a-methyl-2-[2-(2-methylpyrazol-3-yl)ethyl]-4,9-dihydro-3H-pyrazino[1,2-c]pyrimidine-1,6,8-trione] | 123 | 219
19 | Cn1cc(CCN2CCN3C(=O)N(c4c(F)cc(C#Cc5ccccc5)cc4F)C(=O)C[C@@]3(C)C2=O)cn1 [Example 101, (9aS)-7-[2,6-difluoro-4-(2-phenylethynyl)phenyl]-9a-methyl-2-[2-(1-methylpyrazol-4-yl)ethyl]-4,9-dihydro-3H-pyrazino[1,2-c]pyrimidine-1,6,8-trione] | 129 | 125
